Test results published in patent US20260365670A1, “EGFR INHIBITORS AND USES THEREOF” (DIZAL (JIANGSU) PHARMACEUTICAL CO., LTD., priority 2022, published 2026).
Read-outs that look alike come from different tables or passages of the source.

How the values were obtained:
EGFR (d746-750 C797S) = target: T1, EGFR (d746-750 C797S) (Homo sapiens, UniProt P00533, C797S/DEL746-750); experiment: Inhibition of EGFR (d746-750 C797S) biochemical enzymatic activity (HTRF); conditions: EGFR Del19-C797S, 1 mM ATP, 1 h, room temperature, read-out: IC50 (nM) @Del19-C797S
T1 construct: purchased signalchem
Outline: (§1)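 Time-resolved FRET assay of EGFR substrate phosphorylation. Conditions: 1 μM TK substrate-biotin, 1 mM ATP, Mg/Mn buffer, 1 h at RT. IC50 from 4-parameter curve fit.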

EGFR L858R = target: T2, EGFR L858R (Homo sapiens, UniProt P00533, L858R); experiment: Inhibition of EGFR L858R biochemical enzymatic activity (HTRF); conditions: 1 mM ATP, 1 h, room temperature, read-out: IC50 (nM) @L858R
T2 construct: purchased Carna Bio
Outline: as §1

[1] = target: T3, EGFR[T790M/C797S/d746-750] (Homo sapiens, UniProt P00533, C797S/DEL746-750/T790M); experiment: Inhibition of EGFR[T790M/C797S/d746-750] biochemical enzymatic activity (HTRF); conditions: EGFR T790M-C797S-Del19, 1 mM ATP, 1 h, room temperature, read-out: IC50 (nM) @T790M - C797S - Del19
T3 construct: purchased Carna Bio
Outline: as §1

EGFR (C797S L858R) = target: T4, EGFR (C797S L858R) (Homo sapiens, UniProt P00533, C797S/L858R); experiment: Inhibition of EGFR (C797S L858R) biochemical enzymatic activity (HTRF); conditions: EGFR L858-C797S, 1 mM ATP, 1 h, room temperature, read-out: IC50 (nM) @L858-C797S
T4 construct: purchased signalchem
Outline: as §1

EGFR wild type = target: T5, EGFR wild type (Homo sapiens, UniProt P00533); experiment: Inhibition of EGFR wild type biochemical enzymatic activity (HTRF); conditions: EGFR WT, 1 mM ATP, 1 h, room temperature, read-out: IC50 (nM) @WT
T5 construct: purchased Carna Bio
T5 sequence (P00533 25-1210): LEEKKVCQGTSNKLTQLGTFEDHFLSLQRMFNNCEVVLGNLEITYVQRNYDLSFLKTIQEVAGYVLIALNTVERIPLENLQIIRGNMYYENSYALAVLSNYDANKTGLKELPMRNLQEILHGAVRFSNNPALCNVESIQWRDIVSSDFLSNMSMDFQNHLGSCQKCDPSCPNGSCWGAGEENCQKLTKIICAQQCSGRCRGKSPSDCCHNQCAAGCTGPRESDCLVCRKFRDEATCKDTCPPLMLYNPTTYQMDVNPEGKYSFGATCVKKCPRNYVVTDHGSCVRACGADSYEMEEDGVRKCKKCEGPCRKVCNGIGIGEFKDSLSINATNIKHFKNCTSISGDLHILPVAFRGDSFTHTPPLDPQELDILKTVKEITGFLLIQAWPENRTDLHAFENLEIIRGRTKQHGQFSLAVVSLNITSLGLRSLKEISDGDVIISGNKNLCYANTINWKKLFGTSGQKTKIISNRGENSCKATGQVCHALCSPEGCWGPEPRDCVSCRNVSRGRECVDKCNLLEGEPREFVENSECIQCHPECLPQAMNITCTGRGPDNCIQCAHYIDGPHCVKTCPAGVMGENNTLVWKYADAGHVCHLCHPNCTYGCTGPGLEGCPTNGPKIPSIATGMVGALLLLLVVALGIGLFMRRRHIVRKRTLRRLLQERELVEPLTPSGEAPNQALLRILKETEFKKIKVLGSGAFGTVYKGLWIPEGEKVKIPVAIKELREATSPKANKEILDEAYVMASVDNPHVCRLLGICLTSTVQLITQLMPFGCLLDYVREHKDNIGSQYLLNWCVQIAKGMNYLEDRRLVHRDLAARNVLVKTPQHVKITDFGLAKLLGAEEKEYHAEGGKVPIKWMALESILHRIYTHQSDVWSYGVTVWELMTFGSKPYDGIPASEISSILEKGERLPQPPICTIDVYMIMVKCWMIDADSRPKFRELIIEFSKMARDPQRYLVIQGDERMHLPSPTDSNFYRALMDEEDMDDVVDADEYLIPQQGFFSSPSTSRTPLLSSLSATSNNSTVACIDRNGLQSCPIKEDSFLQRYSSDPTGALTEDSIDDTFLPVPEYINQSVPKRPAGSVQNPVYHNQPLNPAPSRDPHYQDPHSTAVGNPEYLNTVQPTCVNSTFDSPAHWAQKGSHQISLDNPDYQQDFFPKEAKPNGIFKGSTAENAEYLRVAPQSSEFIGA
Outline: as §1

EGFR L858R/T790M = target: T6, EGFR L858R/T790M (Homo sapiens, UniProt P00533, L858R/T790M); experiment: Inhibition of EGFR L858R/T790M biochemical enzymatic activity (HTRF); conditions: EGFR L858R-T790M, 1 mM ATP, 1 h, room temperature, read-out: IC50 (nM) @L858R-T790M
T6 construct: purchased Carna Bio
T6 sequence (P00533 25-1210 T790M/L858R): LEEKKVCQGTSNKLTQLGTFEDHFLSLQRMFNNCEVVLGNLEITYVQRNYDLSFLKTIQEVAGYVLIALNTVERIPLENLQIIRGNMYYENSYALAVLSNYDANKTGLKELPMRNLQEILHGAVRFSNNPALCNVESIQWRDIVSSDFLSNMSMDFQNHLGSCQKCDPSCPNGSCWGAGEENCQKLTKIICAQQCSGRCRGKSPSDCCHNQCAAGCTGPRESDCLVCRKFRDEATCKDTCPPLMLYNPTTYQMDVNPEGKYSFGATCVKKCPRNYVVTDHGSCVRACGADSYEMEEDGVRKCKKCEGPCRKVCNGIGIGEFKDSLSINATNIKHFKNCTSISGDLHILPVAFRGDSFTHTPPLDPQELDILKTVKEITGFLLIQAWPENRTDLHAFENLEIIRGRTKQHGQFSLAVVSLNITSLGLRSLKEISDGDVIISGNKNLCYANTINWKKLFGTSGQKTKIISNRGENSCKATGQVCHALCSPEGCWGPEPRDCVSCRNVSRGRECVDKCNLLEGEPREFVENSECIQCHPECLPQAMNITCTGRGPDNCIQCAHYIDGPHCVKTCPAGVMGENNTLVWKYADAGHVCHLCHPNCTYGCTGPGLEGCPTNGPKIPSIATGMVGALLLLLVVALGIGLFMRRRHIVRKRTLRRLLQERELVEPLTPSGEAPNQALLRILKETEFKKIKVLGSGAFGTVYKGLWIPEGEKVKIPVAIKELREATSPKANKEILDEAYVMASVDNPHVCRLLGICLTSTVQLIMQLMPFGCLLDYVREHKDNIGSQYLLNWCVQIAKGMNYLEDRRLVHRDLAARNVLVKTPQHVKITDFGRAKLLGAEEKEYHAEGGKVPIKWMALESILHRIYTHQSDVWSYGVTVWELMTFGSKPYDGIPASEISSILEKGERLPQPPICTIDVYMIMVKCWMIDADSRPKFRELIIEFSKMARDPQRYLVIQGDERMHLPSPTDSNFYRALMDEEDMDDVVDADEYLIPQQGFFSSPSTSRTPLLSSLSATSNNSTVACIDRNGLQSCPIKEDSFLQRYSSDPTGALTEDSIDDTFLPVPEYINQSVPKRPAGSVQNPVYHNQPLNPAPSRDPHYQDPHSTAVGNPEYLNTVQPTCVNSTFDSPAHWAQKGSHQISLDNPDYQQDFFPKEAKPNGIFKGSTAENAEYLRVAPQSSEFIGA
Outline: as §1

PC-9 = experiment: Cell proliferation assay, PC-9 cells (CellTiter-Glo, 72 hours); type: cell-based; conditions: Homo sapiens, PC-9, 72 h, PC9 cells, read-out: GI50 PC9
Outline: (§2)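 In RPMI1640 medium (PC-9 with 10% FBS), each cell line was seeded at its own density: Ba/F3 5000 and PC-9 500 per well. A compound series was added the next day, with a time-zero viability plate read in parallel. Percent proliferation was subtracted for G0 and referenced to DMSO, and GI50 was derived by curve fitting.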

EGFR Exon19Del = target: T7, EGFR Exon19Del (Homo sapiens, UniProt P00533, DEL746-750); experiment: Inhibition of EGFR Exon19Del biochemical enzymatic activity (HTRF); conditions: EGFR Del19, 1 mM ATP, 1 h, room temperature, read-out: IC50 @Del19
T7 construct: purchased Carna Bio
T7 sequence (P00533 with tags, fused parts or gaps DEL746-750 limits assumed): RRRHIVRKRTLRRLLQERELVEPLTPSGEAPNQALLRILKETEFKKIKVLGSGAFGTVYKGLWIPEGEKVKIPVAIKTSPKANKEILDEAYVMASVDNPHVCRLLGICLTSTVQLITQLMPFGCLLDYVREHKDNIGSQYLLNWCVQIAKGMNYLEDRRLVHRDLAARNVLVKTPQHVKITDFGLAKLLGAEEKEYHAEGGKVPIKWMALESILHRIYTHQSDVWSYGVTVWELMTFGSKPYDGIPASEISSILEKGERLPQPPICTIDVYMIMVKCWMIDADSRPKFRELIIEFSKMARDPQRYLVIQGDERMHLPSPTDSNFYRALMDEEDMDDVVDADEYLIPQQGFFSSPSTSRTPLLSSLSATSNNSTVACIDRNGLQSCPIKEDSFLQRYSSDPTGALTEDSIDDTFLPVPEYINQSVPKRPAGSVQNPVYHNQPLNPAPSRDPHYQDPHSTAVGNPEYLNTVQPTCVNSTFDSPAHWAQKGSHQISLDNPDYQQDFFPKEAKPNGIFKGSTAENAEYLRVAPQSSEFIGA
Outline: as §1

EGFR[T790M/C797S/L858R] = target: T8, EGFR[T790M/C797S/L858R] (Homo sapiens, UniProt P00533, C797S/L858R/T790M); experiment: Inhibition of EGFR[T790M/C797S/L858R] biochemical enzymatic activity (HTRF); conditions: EGFR T790M-C797S-L858R, 1 mM ATP, 1 h, room temperature, read-out: IC50 (nM) @T790M- C797S - L858R
T8 construct: purchased Carna Bio
T8 sequence (P00533 25-1210 T790M/C797S/L858R): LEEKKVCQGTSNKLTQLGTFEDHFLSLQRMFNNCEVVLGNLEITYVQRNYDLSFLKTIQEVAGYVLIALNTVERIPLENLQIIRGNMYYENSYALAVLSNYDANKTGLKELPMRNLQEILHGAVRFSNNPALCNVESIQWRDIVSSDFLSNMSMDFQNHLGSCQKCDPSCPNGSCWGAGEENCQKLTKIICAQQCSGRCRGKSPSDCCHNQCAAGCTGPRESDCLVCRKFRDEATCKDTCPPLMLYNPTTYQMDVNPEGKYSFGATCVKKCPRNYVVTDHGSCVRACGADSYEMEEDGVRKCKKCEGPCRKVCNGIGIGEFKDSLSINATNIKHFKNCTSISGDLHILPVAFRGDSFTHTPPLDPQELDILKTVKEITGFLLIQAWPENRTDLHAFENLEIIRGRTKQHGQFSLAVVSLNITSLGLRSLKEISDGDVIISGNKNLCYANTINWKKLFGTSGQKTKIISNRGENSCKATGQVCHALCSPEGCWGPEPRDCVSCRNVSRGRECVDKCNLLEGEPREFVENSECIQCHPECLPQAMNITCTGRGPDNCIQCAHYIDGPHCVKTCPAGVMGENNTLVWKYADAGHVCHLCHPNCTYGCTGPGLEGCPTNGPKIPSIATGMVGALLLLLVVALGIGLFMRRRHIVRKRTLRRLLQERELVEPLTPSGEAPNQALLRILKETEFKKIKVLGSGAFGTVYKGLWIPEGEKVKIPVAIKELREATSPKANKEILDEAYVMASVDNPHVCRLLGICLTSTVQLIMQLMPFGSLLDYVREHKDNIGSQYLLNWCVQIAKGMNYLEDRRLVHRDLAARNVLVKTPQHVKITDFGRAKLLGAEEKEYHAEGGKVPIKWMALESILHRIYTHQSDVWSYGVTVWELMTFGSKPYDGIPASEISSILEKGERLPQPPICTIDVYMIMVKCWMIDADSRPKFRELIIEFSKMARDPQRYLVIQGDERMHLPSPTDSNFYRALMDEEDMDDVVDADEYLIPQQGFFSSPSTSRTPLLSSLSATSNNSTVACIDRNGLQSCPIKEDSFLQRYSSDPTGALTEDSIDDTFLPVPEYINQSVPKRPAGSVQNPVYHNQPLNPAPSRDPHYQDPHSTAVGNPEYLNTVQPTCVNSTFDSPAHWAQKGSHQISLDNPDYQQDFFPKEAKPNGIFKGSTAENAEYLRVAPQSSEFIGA
Outline: as §1

A-431 = experiment: Cell proliferation assay, A-431 cells (GI50, Table 6); type: cell-based; conditions: Homo sapiens, A-431, A-431 cells
[2] = system: Ba/F3 cells expressing EGFR mutations; experiment: Cell proliferation assay, Ba/F3 cells expressing EGFR mutations (CellTiter-Glo, 72 hours); type: cell-based; conditions: Mus musculus, BaF3, 72 h
Outline: as §2

EGFR Exon19Del/T790M = target: T9, EGFR Exon19Del/T790M (Homo sapiens, UniProt P00533, DEL746-750/T790M); experiment: Inhibition of EGFR Exon19Del/T790M biochemical enzymatic activity (HTRF); conditions: EGFR Del19-T790M, 1 mM ATP, 1 h, room temperature, read-out: IC50 (nM) @Del19-T790M
T9 construct: purchased Carna Bio
T9 sequence (P00533 with tags, fused parts or gaps DEL746-750/T790M limits assumed): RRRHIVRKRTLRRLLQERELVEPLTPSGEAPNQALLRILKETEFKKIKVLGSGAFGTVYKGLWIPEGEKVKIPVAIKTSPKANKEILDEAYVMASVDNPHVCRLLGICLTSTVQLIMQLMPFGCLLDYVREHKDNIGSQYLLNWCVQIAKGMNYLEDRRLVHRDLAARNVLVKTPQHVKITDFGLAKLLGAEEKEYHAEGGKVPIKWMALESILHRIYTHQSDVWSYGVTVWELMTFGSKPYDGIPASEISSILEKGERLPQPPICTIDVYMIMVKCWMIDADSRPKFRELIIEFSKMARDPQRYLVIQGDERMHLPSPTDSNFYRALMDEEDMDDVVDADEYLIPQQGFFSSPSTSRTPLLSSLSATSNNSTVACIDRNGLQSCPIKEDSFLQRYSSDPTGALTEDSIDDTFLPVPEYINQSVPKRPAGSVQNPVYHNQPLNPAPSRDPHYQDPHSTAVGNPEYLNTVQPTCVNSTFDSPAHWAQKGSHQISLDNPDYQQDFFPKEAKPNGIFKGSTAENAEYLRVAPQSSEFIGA
Outline: as §1

[3] = BaF3 cells, EGFR DEL19 - C797S, read-out: GI50 DEL19 - C797S/BaF3
[4] = BaF3 cells, EGFR DEL19 - T790-C797S, read-out: GI50 DEL19 - T790-C797S/BaF3
[5] = BaF3 cells, EGFR L858R - C797S, read-out: GI50 L858R - C797S/BaF3
[6] = BaF3 cells, EGFR L858R - T790-C797S, read-out: GI50 L858R - T790-C797S/BaF3
[7] = BaF3 cells, EGFR L858R - T790M, read-out: GI50 L858R - T790M/BaF3
[8] = BaF3 cells, EGFR L858R, read-out: GI50 L858R/BaF3
[9] = EGFR DEL19 - T790M, read-out: GI50 DEL19 - T790M

Row | Compound | IC50 (EGFR (d746-750 C797S)) | IC50 (EGFR L858R) | IC50 [1] | IC50 (EGFR (C797S L858R)) | IC50 (EGFR wild type) | IC50 (EGFR L858R/T790M) | GI50 (PC-9) | IC50 (EGFR Exon19Del) | IC50 (EGFR[T790M/C797S/L858R]) | GI50 (A-431) | GI50 [2, 3] | GI50 [2, 4] | GI50 [2, 5] | GI50 [2, 6] | GI50 [2, 7] | GI50 [2, 8] | GI50 [2, 9] | IC50 (EGFR Exon19Del/T790M)
1 | CN1CCN(c2ccc3nc4n(c3c2)C(C)(C)CCCCOc2c(cnn2C)-c2cc(cn(C)c2=O)C(=O)N4)CC1 [Example A112, 5,12,12,26-Tetramethyl-16-(4-methylpiperazin-1-yl)-7-oxa-4,5,13,20,22,26-hexaazapentacyclo[22.3.1.0^{2,6}.0^{13,21}.0^{14,19}]octacosa-1(28),2(6),3,14,16,18,20,24-octaene-23,27-dione] | 6.6 nM | 198 nM | 12 nM | 60 nM | > 5000 nM | 133 nM | 45 nM | 8.5 nM | 52 nM | 3590 nM | 4.5 nM | 70 nM | 47 nM | 64 nM | 37 nM | 89 nM | 105 nM | 15 nM
2 | Cn1ncc2c1OCCN1CC3CCC(CC3)(C1)n1c(nc3cc(F)c(N4CCOCC4)cc31)NC(=O)c1cc-2c(=O)n(C)c1 [Example A113, 6-Fluoro-15,21-dimethyl-5-(morpholin-4-yl)-23-oxa-2,9,11,15,20,21,26-heptaazaheptacyclo[26.2.2.1^{1,26}.1^{13,17}.0^{2,10}.0^{3,8}.0^{18,22}]tetratriaconta-3,5,7,9,13,17(34),18(22),19-octaene-12,16-dione] | 1200 nM | 439 nM | 45 nM | 46 nM | > 5000 nM | 230 nM | 147 nM | 41 nM | 900 nM | 4690 nM | 15 nM | 108 nM | 172 nM | 230 nM | 255 nM | 121 nM | 63 nM | 32 nM
3 | Cn1ncc2c1OCCN1CC3CCC(CC3)(C1)n1c(nc3cc(F)ccc31)NC(=O)c1cc-2c(=O)n(C)c1 [Example A116, 6-fluoro-15,21-dimethyl-23-oxa-2,9,11,15,20,21,26-heptaazaheptacyclo[26.2.2.1^{1,26}.1^{13,17}.0^{2,10}.0^{3,8}.0^{18,22}]tetratriaconta-3,5,7,9,13,17(34),18(22),19-octaene-12,16-dione] | 474 nM | > 5000 nM | 168 nM | 3700 nM | > 5000 nM | > 5000 nM | 256 nM | 464 nM | > 5000 nM | 3440 nM | 56 nM | 336 nM | 194 nM | 162 nM | 720 nM | 419 nM | 157 nM | 88 nM
4 | Cn1ncc2c1OCCN1CC3CCC(C3)(C1)n1c(nc3cc(F)ccc31)NC(=O)c1cc-2c(=O)n(C)c1 (centres unmarked) [Example A117B, 6-fluoro-15,21-dimethyl-23-oxa-2,9,11,15,20,21,26-heptaazaheptacyclo[24.4.1.1^{1,28}.1^{13,17}.0^{2,10}.0^{3,8}.0^{18,22}]tritriaconta-3,5,7,9,13,17(33),18(22),19-octaene-12,16-dione] | 8.1 nM | 463 nM | 2.5 nM | 23 nM | > 5000 nM | 1910 nM | 57 nM | 23 nM | 280 nM | 1510 nM | 4.3 nM | 20 nM | 38 nM | 32 nM | 80 nM | 16 nM | 12 nM | 3.3 nM

Continued, values first:

Row | IC50 (EGFR (d746-750 C797S)) | IC50 (EGFR L858R) | IC50 [1] | IC50 (EGFR (C797S L858R)) | IC50 (EGFR wild type) | IC50 (EGFR L858R/T790M) | GI50 (PC-9) | IC50 (EGFR Exon19Del) | IC50 (EGFR[T790M/C797S/L858R]) | GI50 (A-431) | GI50 [2, 3] | GI50 [2, 4] | GI50 [2, 5] | GI50 [2, 6] | GI50 [2, 7] | GI50 [2, 8] | GI50 [2, 9] | IC50 (EGFR Exon19Del/T790M) | Compound
5 | 4.7 nM | 38 nM | 3 nM | 19 nM | 1060 nM | 32 nM | 11 nM | 7.6 nM | 9 nM | 1070 nM | 1.5 nM | 11 nM | 11 nM | 6.6 nM | 15 nM | 2.1 nM | 7.3 nM | 6.6 nM | CN(C)C1CCN(c2ccc3nc4n(c3c2)C23CCC(CC2)CN(CCOc2c(cnn2C)-c2cc(cn(C)c2=O)C(=O)N4)C3)CC1 [Example A119, 5-[4-(dimethylamino)piperidin-1-yl]-15,21-dimethyl-23-oxa-2,9,11,15,20,21,26-heptaazaheptacyclo[26.2.2.1^{1,26}.1^{13,17}.0^{2,10}.0^{3,8}.0^{18,22}]tetratriaconta-3,5,7,9,13,17(34),18(22),19-octaene-12,16-dione]
6 | 14 nM | 177 nM | 15 nM | 108 nM | > 5000 nM | 374 nM | 54 nM | 22 nM | 113 nM | 7850 nM | 13 nM | 71 nM | 50 nM | 28 nM | 113 nM | 8.1 nM | 40 nM | 16 nM | CN(C)[C@H]1CCN(c2ccc3nc4n(c3c2)C23CCC(CC2)CN(CCOc2c(cnn2C)-c2cc(cn(C)c2=O)C(=O)N4)C3)C1 [Example A120]
7 | 19 nM | 167 nM | 10 nM | 101 nM | > 5000 nM | 477 nM | 27 nM | 25 nM | 154 nM | 4970 nM | 7.8 nM | 44 nM | 35 nM | 15 nM | 61 nM | 12 nM | 25 nM | 21 nM | CN(C)[C@@H]1CCN(c2ccc3nc4n(c3c2)C23CCC(CC2)CN(CCOc2c(cnn2C)-c2cc(cn(C)c2=O)C(=O)N4)C3)C1 [Example A121]
8 | 3.5 nM | 48 nM | 5.2 nM | 25 nM | 1420 nM | 39 nM | 22 nM | 6.8 nM | 8.1 nM | 2100 nM | 3.2 nM | 22 nM | 19 nM | 13 nM | 82 nM | 4.1 nM | – | 7.6 nM | CN1CCC12CCN(c1ccc3nc4n(c3c1)C13CCC(CC1)CN(CCOc1c(cnn1C)-c1cc(cn(C)c1=O)C(=O)N4)C3)CC2 [Example A122]
9 | 9.4 nM | 65 nM | 11 nM | 57 nM | > 5000 nM | 223 nM | 25 nM | 13 nM | 23 nM | 6110 nM | 12 nM | 45 nM | 32 nM | 20 nM | 59 nM | 5.8 nM | 27 nM | 13 nM | CN1CCC2(CC1)CCN(c1ccc3nc4n(c3c1)C13CCC(CC1)CN(CCOc1c(cnn1C)-c1cc(cn(C)c1=O)C(=O)N4)C3)C2 [Example A123]
